IC50 data for 35 molecules are collected here from patent US20250340563A1, “FUSED PYRIDAZINE DERIVATIVES AS NLRP3 INHIBITORS” (Takeda Pharmaceutical Company Limited, priority 2022, published 2025).

The experiment concerns the target NLRP3 inflammasome (Homo sapiens, UniProt Q96P20). Description: IL-1β assay in IFN-γ-differentiated, LPS-primed, ATP-activated THP-1 cells (ELISA). Format: cell-based. The note with it: 50 ng/mL LPS priming, 2.5 mM ATP activation, 2 hours. The method, then: Monocytic THP-1 cells (ATCC: TIB-202) are maintained in accordance with the provider's instructions in RPMI media (Life Technologies, Cat #A10491-01); RPMI is supplemented with 10% heat inactivated fetal bovine serum (Hyclone Cat #SH30396.03). The cells are differentiated into macrophages by the addition of 25 ng/mL IFN-7 (PeproTech, Cat #300-02-100UG) for 24 hours at 37° C./5% CO2. Media is exchanged with fresh media with no FBS, and the cells are treated with 50 ng/mL LPS (priming step) for 24 hours at 37° C./5% CO2 (LPS-EK: Invivogen, Cat #tlrl-peklps). Media is exchanged with fresh media with no FBS. The cells are plated at 40,000 cells per well in 384-well flat-bottom cell culture plates (Costar 3764) containing compounds (added in 1:1000) in a 1:3.16 serial dilution series in DMSO and are incubated for 30 minutes at 37° C./5% CO2. The NLRP3 inflammasome is activated with the addition of 2.5 mM ATP (Sigma Cat #A3377) and the cells are incubated for 2 hours at 37° C./5% CO2. At the end of the incubation period, 40 μL supernatant is removed, and […] are monitored using an ELISA (Human […], R&D systems, Cat #DY201) in accordance with the manufacturer's instructions.
The IC50 values are calculated from a plot of percentage of inhibition versus the inhibitor concentration by a logistics curve fit according to: Y=[Bottom+(Top−Bottom)]/(1+10^[(Log IC50−X)·Hill Slope], where Y is the % inhibition at the inhibitor concentration, X, “Bottom” is the lowest inhibition value, i.e. 0%, “Top” is the maximum inhibition value, i.e. 100%, and the “Hill Slope” describes the slope of the sigmoidal curve between the “Bottom” and “Top” values. The curve fitting was conducted with internally developed software.

Sequence of NLRP3 inflammasome (Q96P20 whole entry): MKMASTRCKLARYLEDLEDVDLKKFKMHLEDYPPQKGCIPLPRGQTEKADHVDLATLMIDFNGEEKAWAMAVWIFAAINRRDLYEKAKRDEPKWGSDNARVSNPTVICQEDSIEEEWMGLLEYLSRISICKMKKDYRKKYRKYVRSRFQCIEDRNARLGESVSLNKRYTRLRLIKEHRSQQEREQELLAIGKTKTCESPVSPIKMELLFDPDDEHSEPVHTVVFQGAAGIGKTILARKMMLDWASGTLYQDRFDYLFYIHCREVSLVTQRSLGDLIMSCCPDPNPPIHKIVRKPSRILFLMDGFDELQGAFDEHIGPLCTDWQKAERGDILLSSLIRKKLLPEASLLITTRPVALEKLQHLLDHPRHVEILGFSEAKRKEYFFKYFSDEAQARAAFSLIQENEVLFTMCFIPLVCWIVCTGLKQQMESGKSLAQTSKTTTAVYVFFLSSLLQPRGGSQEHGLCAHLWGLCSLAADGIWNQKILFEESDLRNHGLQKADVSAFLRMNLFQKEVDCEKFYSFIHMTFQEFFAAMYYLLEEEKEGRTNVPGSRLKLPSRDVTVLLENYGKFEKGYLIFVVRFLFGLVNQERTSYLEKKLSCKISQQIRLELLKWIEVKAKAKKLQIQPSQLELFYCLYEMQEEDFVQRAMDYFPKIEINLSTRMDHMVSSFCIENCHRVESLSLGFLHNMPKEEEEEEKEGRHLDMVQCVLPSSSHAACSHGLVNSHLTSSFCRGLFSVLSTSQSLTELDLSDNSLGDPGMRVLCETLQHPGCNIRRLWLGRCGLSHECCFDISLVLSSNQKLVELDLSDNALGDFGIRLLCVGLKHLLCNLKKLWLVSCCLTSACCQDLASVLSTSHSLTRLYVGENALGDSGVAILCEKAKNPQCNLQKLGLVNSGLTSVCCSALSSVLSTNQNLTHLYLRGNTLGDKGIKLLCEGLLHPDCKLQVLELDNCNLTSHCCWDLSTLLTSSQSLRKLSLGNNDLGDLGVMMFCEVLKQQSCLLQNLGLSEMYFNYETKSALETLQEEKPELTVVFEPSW

In turn, `CS(=O)(=O)N1CCCC(Nc2nnc(-c3ccc(Cl)cc3)c3ccccc23)C1` (centres unmarked) [Example 148, 4-(4-chlorophenyl)-N-(1-(methylsulfonyl)piperidin-3-yl)phthalazin-1-amine] yielded an IC50 of 1050 nM. `CN1CCCC(Nc2nnc(-c3ccc(C(F)(F)F)cc3)c3ccccc23)C1` (centres unmarked) [Example 13, N-(1-methylpiperidin-3-yl)-4-(4-(trifluoromethyl)phenyl)phthalazin-1-amine] returned an IC50 of 65 nM. With `Clc1ccc(-c2nnc(NC3CN4CCC3CC4)c3ccccc23)cc1` (centres unmarked) [Example 164, N-(4-(4-chlorophenyl)phthalazin-1-yl)quinuclidin-3-amine] the figure was 372 nM; with `Cc1cc(Cl)ccc1-c1nnc(N[C@@H]2CCCN(C)C2)c2cnccc12` [Example 31, (R)-1-(4-chloro-2-methylphenyl)-N-(1-methylpiperidin-3-yl)pyrido[3,4-d]pyridazin-4-amine], 34 nM. Next, `Oc1cccc(Nc2nnc(-c3cccc(C4CC4)c3)c3ccccc23)c1` [Example 10, 3-((4-(3-cyclopropylphenyl)phthalazin-1-yl)amino)phenol]: 437 nM; `COc1ccc(-c2nnc(N[C@@H]3CCCN(CCF)C3)c3ccccc23)c(F)c1` [Example 61, (R)-4-(2-fluoro-4-methoxyphenyl)-N-(1-(2-fluoroethyl)piperidin-3-yl)phthalazin-1-amine]: 134 nM.

In the case of `COc1ccc(-c2nnc(N[C@@H]3CCCN(C)C3)c3ccccc23)c(F)c1` [Example 53, (R)-4-(2-fluoro-4-methoxyphenyl)-N-(1-methylpiperidin-3-yl)phthalazin-1-amine], the IC50 stood at 40 nM.

For `CN1CCCC(Nc2nnc(-c3ccc(Cl)cc3)c3c2CN(S(C)(=O)=O)CC3)C1` (centres unmarked) [Example 107, 1-(4-chlorophenyl)-N-(1-methylpiperidin-3-yl)-6-(methylsulfonyl)-5,6,7,8-tetrahydropyrido[3,4-d]pyridazin-4-amine], 1780 nM corresponded to half-maximal inhibition (IC50).

For `CN1C[C@H](F)C[C@@H](Nc2nnc(-c3ccc(Cl)cc3)c3cnccc23)C1` [Example 175, 4-(4-chlorophenyl)-N-((3R,5R)-5-fluoro-1-methylpiperidin-3-yl)pyrido[3,4-d]pyridazin-1-amine], the IC50 came to 589 nM. `CN1CCC[C@@H](Nc2nnc(-c3ccc(OC(F)(F)F)c(C#N)c3)c3ccncc23)C1` [Example 24, (R)-5-(4-((1-methylpiperidin-3-yl)amino)pyrido[3,4-d]pyridazin-1-yl)-2-(trifluoromethoxy)benzonitrile] came in with an IC50 of 157 nM. On to `COc1cc(Cl)ccc1-c1nnc(NC2CCCN(C)C2)c2ccncc12` (centres unmarked) [Example 48, 4-(4-chloro-2-methoxyphenyl)-N-(1-methylpiperidin-3-yl)pyrido[3,4-d]pyridazin-1-amine], for which the IC50 turned out to be 3090 nM. With `CN1CCC[C@H](Nc2nnc(-c3ccc(Cl)cc3)c3ccncc23)C1` [Example 65, (S)-1-(4-chlorophenyl)-N-(1-methylpiperidin-3-yl)pyrido[3,4-d]pyridazin-4-amine] the figure was 1220 nM. Next, `COc1ccc(-c2nnc(NCC3(N4CCCC4)CC3)c3ccccc23)cc1` [Example 131, 4-(4-methoxyphenyl)-N-((1-(pyrrolidin-1-yl)cyclopropyl)methyl)phthalazin-1-amine]: 3630 nM.

`O[C@]1(C(F)(F)F)CCC[C@@H](Nc2nnc(-c3ccc(Cl)cc3)c3ccccc23)C1` [Example 116, (1R,3R)-3-((4-(4-chlorophenyl)phthalazin-1-yl)amino)-1-(trifluoromethyl)cyclohexan-1-ol] gave an IC50 of 912 nM. With `COC1CC(N2CCCC(Nc3nnc(-c4ccc(Cl)cc4)c4ccncc34)C2)C1` (centres unmarked) [Example 197, 1-(4-chlorophenyl)-N-(1-(3-methoxycyclobutyl)piperidin-3-yl)pyrido[3,4-d]pyridazin-4-amine] the figure was 708 nM. For `CN1CCC[C@@H](Nc2nnc(-c3ccc4c(c3)OCCO4)c3ccncc23)C1` [Example 26, (R)-1-(2,3-dihydrobenzo[b][1,4]dioxin-6-yl)-N-(1-methylpiperidin-3-yl)pyrido[3,4-d]pyridazin-4-amine], the concentration for half-maximal inhibition (IC50) came out at 603 nM. `COc1ccc(-c2nnc(NC3CCCN(C)C3)c3cnn(C)c23)cc1` (centres unmarked) [Example 150, 7-(4-methoxyphenyl)-1-methyl-N-(1-methylpiperidin-3-yl)-1H-pyrazolo[3,4-d]pyridazin-4-amine] gave an IC50 of 325 nM.

For `Clc1ccc(-c2nnc(NC3CCCN(c4ccccn4)C3)c3ccccc23)cc1` (centres unmarked) [Example 154, 4-(4-chlorophenyl)-N-(1-(pyridin-2-yl)piperidin-3-yl)phthalazin-1-amine], the IC50 amounted to 3390 nM. With `COc1ccc(-c2nnc(Nc3cccc(O)c3)c3ncccc23)cc1` [Example 198, 3-((5-(4-methoxyphenyl)pyrido[2,3-d]pyridazin-8-yl)amino)phenol] the figure was 4380 nM. `CN1CCC[C@@H](Nc2nnc(-c3ccc(C(F)(F)F)cc3F)c3ccncc23)C1` [Example 33, (R)-1-(2-fluoro-4-(trifluoromethyl)phenyl)-N-(1-methylpiperidin-3-yl)pyrido[3,4-d]pyridazin-4-amine] gave an IC50 of 33 nM. For the molecule `FC(F)CN1CCCC(Nc2nnc(-c3ccc(Cl)cc3)c3ccccc23)C1` (centres unmarked) [Example 142, 4-(4-chlorophenyl)-N-(1-(2,2-difluoroethyl)piperidin-3-yl)phthalazin-1-amine], the IC50 amounted to 195 nM. In turn, `Cc1cc(Cl)ccc1-c1nnc(NC2CCCN(C)C2)c2ccncc12` (centres unmarked) [Example 50, 4-(4-chloro-2-methylphenyl)-N-(1-methylpiperidin-3-yl)pyrido[3,4-d]pyridazin-1-amine] registered an IC50 of 1320 nM. The molecule `CN1CCC[C@@H](Nc2nnc(-c3ccc(OC(F)(F)F)cc3)c3ccncc23)C1` [Example 32, (R)—N-(1-methylpiperidin-3-yl)-1-(4-(trifluoromethoxy)phenyl)pyrido[3,4-d]pyridazin-4-amine] came in with an IC50 of 36 nM. With `CO[C@H]1C[C@@H](Nc2nnc(-c3ccc(Cl)cc3)c3ccccc23)C1` [Example 134, 4-(4-chlorophenyl)-N-(cis-3-methoxycyclobutyl)phthalazin-1-amine] the figure was 2290 nM. As to `CN1CCCC(Nc2nnc(-c3ccc(F)cc3)c3ccccc23)C1` (centres unmarked) [Example 11, 4-(4-fluorophenyl)-N-(1-methylpiperidin-3-yl)phthalazin-1-amine], the IC50 was found to be 933 nM. Next, `Cc1nccc2c(NC3CCCN(C)C3)nnc(-c3ccc(Cl)cc3)c12` (centres unmarked) [Example 77, 4-(4-chlorophenyl)-5-methyl-N-(1-methylpiperidin-3-yl)pyrido[3,4-d]pyridazin-1-amine]: 1510 nM; `Clc1ccc(-c2nnc(NC3CCN(CC4CC4)C3)c3ccccc23)cc1` (centres unmarked) [Example 161, 4-(4-chlorophenyl)-N-(1-(cyclopropylmethyl)pyrrolidin-3-yl)phthalazin-1-amine]: 977 nM; `CC(C)c1ccc(-c2nnc(Nc3cccc(O)c3)c3ccccc23)cc1` [Example 7, 3-((4-(4-isopropylphenyl)phthalazin-1-yl)amino)phenol]: 977 nM. Consider `CN1CCCC(Nc2nnc(-c3ccccc3Cl)c3ccccc23)C1` (centres unmarked) [Example 14, 4-(2-chlorophenyl)-N-(1-methylpiperidin-3-yl)phthalazin-1-amine], for which inhibition was half-maximal at 2950 nM (IC50). Next, `O[C@]1(C(F)(F)F)C[C@@H](Nc2nnc(-c3ccc(Cl)cc3)c3ccccc23)C1` [Example 117, trans-3-((4-(4-chlorophenyl)phthalazin-1-yl)amino)-1-(trifluoromethyl)cyclobutan-1-ol]: 624 nM. Consider `CN1CCCC(Nc2nnc(-c3ccc(C(F)F)nc3)c3ccccc23)C1` (centres unmarked) [Example 2, 4-(6-(difluoromethyl)pyridin-3-yl)-N-(1-methylpiperidin-3-yl)phthalazin-1-amine], for which the IC50 came out at 5250 nM. With `COc1ccc(-c2nnc(N[C@@H]3C[C@@H](F)CN(C4CC4)C3)c3ccccc23)cc1` [Example 55, N-((3R,5R)-1-cyclopropyl-5-fluoropiperidin-3-yl)-4-(4-methoxyphenyl)phthalazin-1-amine] the figure was 575 nM; with `Clc1ccc(-c2nnc(NC3CCCN(C4CCCC4)C3)c3ccccc23)cc1` (centres unmarked) [Example 146, 4-(4-chlorophenyl)-N-(1-cyclopentylpiperidin-3-yl)phthalazin-1-amine], 56 nM; with `F[C@H]1CNC[C@H](Nc2nnc(-c3ccc(Cl)cc3)c3ccncc23)C1` [Example 188, 1-(4-chlorophenyl)-N-((3R,5R)-5-fluoropiperidin-3-yl)pyrido[3,4-d]pyridazin-4-amine], 692 nM. As for `Clc1ccc(-c2nnc(NC3CCN(Cc4ccccc4)C3)c3ccccc23)cc1` (centres unmarked) [Example 158, N-(1-benzylpyrrolidin-3-yl)-4-(4-chlorophenyl)phthalazin-1-amine], the IC50 was 2290 nM.
